Results on 13 compounds are retold here after PubChem BioAssay (NCI).

Some test systems named below: A549 NSCLC; BT-549 breast; HL-60(TB) leukemia; HOP-62 NSCLC; HOP-92 NSCLC; K-562 leukemia; OVCAR-3 ovarian; OVCAR-5 ovarian; SF-539 CNS; UACC-62 melanoma.
Common to all, as to test: NCI anticancer screen, dose series, 48 h

Molecules are shown by their SMILES.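 Where inhibition never reached the appropriate level, the endpoint shown equals the highest concentration tested. Otherwise, values were interpolated linearly from a five-concentration, 48-hour dose response in 96-well plates. GI50 marks 50% less growth. Definition used: TGI = concentration required for complete inhibition of growth.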

As to `COC12OC3CC4(C)C(=CC3OC(OC(C)C1O)C2O)CCC1C4CCC2(C)C(c3ccc(=O)oc3)CCC12O` (configuration not stated), the TGI with A549 NSCLC stood at 0.00166 µM; with BT-549 breast, 0.00413 µM; in the assay on HL-60(TB) leukemia, 0.00215 µM; with HOP-62 NSCLC, 0.00311 µM; with HOP-92 NSCLC, 0.0347 µM; in the assay with K-562 leukemia it was 0.00718 µM. Moreover, the TGI in the assay on OVCAR-3 ovarian is 0.00639 µM; with OVCAR-5 ovarian, 0.00327 µM; with SF-539 CNS, 0.00167 µM; with UACC-62 melanoma, 0.00472 µM.
In the case of `NC(=O)C[C@H](NC(=O)C1(NC(=O)[C@H](Cc2ccc(CP(=O)(O)O)cc2)NC(=O)C(=O)O)CCCCC1)C(=O)NCCCc1cccc2ccccc12`, the TGI in the assay with A549 NSCLC, in the assay with BT-549 breast, in the assay with HL-60(TB) leukemia, in the assay on HOP-62 NSCLC, in the assay on HOP-92 NSCLC and in the assay with K-562 leukemia was > 10 µM in each case. Further, the TGI in the assay on OVCAR-3 ovarian, in the assay on OVCAR-5 ovarian, in the assay with SF-539 CNS and in the assay on UACC-62 melanoma was > 10 µM in each case.
`COc1ccc(CCNC(=O)CCCCCO)cc1OC`: the TGI in the assay on A549 NSCLC, with BT-549 breast, in the assay on HL-60(TB) leukemia, with HOP-62 NSCLC, with HOP-92 NSCLC and in the assay on K-562 leukemia was > 100 µM in each case. Also, the TGI in the assay with OVCAR-3 ovarian, in the assay with OVCAR-5 ovarian, in the assay with SF-539 CNS and in the assay with UACC-62 melanoma was > 100 µM in each case.
As for `COc1cccc2c1-c1c(OC)cccc1SS2`, the TGI is 33.5 µM with A549 NSCLC; 86.5 µM in the assay with BT-549 breast; 7.35 µM in the assay on HL-60(TB) leukemia; > 100 µM with HOP-62 NSCLC; 36 µM in the assay on HOP-92 NSCLC; > 100 µM with K-562 leukemia. Further, the TGI in the assay with OVCAR-3 ovarian came to 48.7 µM; in the assay with OVCAR-5 ovarian, 40.9 µM; in the assay on SF-539 CNS, 33.4 µM; with UACC-62 melanoma, 92.5 µM.
Consider `COP(=O)(OC)c1ccc(NCc2cc(O)ccc2O)cc1`, for which the TGI is > 100 µM in the assay on A549 NSCLC; 36.9 µM in the assay with BT-549 breast; > 92.2 µM in the assay with HL-60(TB) leukemia; > 84.7 µM in the assay on HOP-62 NSCLC; 45.5 µM in the assay with HOP-92 NSCLC; > 96.8 µM in the assay on K-562 leukemia. Also, the TGI was 16.5 µM in the assay with OVCAR-3 ovarian, > 60.1 µM with OVCAR-5 ovarian, 46.1 µM in the assay with SF-539 CNS and 43.9 µM in the assay with UACC-62 melanoma.
`C[C@]12CC[C@H](O)CC1=CC[C@@H]1[C@@H]2CC[C@]2(C)c3nc(Cl)ccc3C[C@@H]12`: the TGI in the assay on A549 NSCLC is 96.9 µM; in the assay on BT-549 breast it was > 100 µM; in the assay with HL-60(TB) leukemia, > 100 µM; with HOP-62 NSCLC, > 67.6 µM; in the assay with HOP-92 NSCLC, > 100 µM; in the assay on K-562 leukemia, > 100 µM. Besides, the TGI is > 73.2 µM in the assay on OVCAR-3 ovarian, > 100 µM in the assay on OVCAR-5 ovarian, 37.2 µM with SF-539 CNS and > 100 µM in the assay with UACC-62 melanoma.
Take `CCOC(=O)c1cn(CC)c2cc3c(cc2c1=O)CCS3(=O)=O`: the TGI in the assay on A549 NSCLC, with BT-549 breast, in the assay with HL-60(TB) leukemia, in the assay with HOP-62 NSCLC, in the assay on HOP-92 NSCLC and in the assay on K-562 leukemia was > 100 µM throughout. For the same compound, the TGI in the assay with OVCAR-3 ovarian, in the assay with OVCAR-5 ovarian, with SF-539 CNS and in the assay with UACC-62 melanoma was > 100 µM in each case.
For `CN(C)CCCNc1cnc2cc3ccccc3cc2n1`, the TGI in the assay with A549 NSCLC was > 100 µM; with BT-549 breast it was 58.9 µM; in the assay on HL-60(TB) leukemia, 68.3 µM; in the assay with HOP-62 NSCLC, > 100 µM; in the assay with HOP-92 NSCLC, 95.8 µM; in the assay with K-562 leukemia, 70.2 µM. Also, the TGI is > 100 µM in the assay with OVCAR-3 ovarian, 81.9 µM in the assay with OVCAR-5 ovarian, 68.8 µM with SF-539 CNS and 30 µM in the assay on UACC-62 melanoma.
Take `O=[N+]([O-])c1ccc2nc(/C=C(\O)c3ccccc3)c(/C=C(\O)c3ccccc3)nc2c1`: the TGI in the assay with A549 NSCLC was > 58.5 µM; with BT-549 breast it was 62.1 µM; in the assay with HL-60(TB) leukemia, 52.6 µM; in the assay with HOP-62 NSCLC, 35.2 µM; in the assay with HOP-92 NSCLC it was 5.63 µM; with K-562 leukemia, > 100 µM. The TGI in the assay with OVCAR-3 ovarian was 31.3 µM; in the assay on OVCAR-5 ovarian, > 100 µM; with SF-539 CNS, 22.8 µM; in the assay with UACC-62 melanoma it was 18.8 µM. Moreover, the results for the GI50 in the assay with HL-60(TB) leukemia and in the assay with HOP-92 NSCLC were 13.6 µM and 0.195 µM, respectively.
In the case of `CSC1(SC)N2Cc3ccccc3N=C2C1(c1ccccc1)c1ccccc1`, the TGI in the assay on A549 NSCLC was > 100 µM; in the assay with BT-549 breast it was > 92.6 µM; in the assay with HL-60(TB) leukemia it was > 53.1 µM; in the assay with HOP-62 NSCLC, > 100 µM; in the assay on HOP-92 NSCLC, > 27.3 µM; in the assay with K-562 leukemia, > 100 µM. For the same compound, the TGI with OVCAR-3 ovarian is 28.3 µM; with OVCAR-5 ovarian it was > 77.9 µM; in the assay with SF-539 CNS, 31.6 µM; in the assay on UACC-62 melanoma, > 55.3 µM.
As to `Cc1oncc1NC1=CC(=O)C(=O)c2ccccc21`, the TGI in the assay on A549 NSCLC amounted to 15.7 µM; with BT-549 breast it was 25 µM; with HL-60(TB) leukemia it was 7.06 µM; in the assay on HOP-62 NSCLC, 36.8 µM; in the assay with HOP-92 NSCLC, 24 µM; with K-562 leukemia, 27 µM. Further, the TGI turned out to be 4.97 µM in the assay with OVCAR-3 ovarian, 26.5 µM with OVCAR-5 ovarian, 15.1 µM with SF-539 CNS and 8.4 µM in the assay with UACC-62 melanoma.
With `CCCCC1(N=[N+]=[N-])C(=O)C2C=CC=C3c4ccccc4N(C1=O)C32` (configuration not stated), the TGI was > 31.6 µM with A549 NSCLC; > 31.6 µM with BT-549 breast; > 100 µM with HL-60(TB) leukemia; > 31.6 µM in the assay with HOP-62 NSCLC; > 10 µM in the assay with HOP-92 NSCLC; > 31.6 µM in the assay on K-562 leukemia. In addition, the TGI in the assay on OVCAR-3 ovarian, with OVCAR-5 ovarian, in the assay on SF-539 CNS and in the assay on UACC-62 melanoma was > 31.6 µM in each case.
Turning to `CC1C2CC(CC2N)C1(C)C` (configuration not stated), the TGI in the assay with A549 NSCLC, in the assay on BT-549 breast, with HL-60(TB) leukemia, with HOP-62 NSCLC, in the assay on HOP-92 NSCLC and in the assay on K-562 leukemia was > 100 µM in each case. The TGI in the assay on OVCAR-3 ovarian, in the assay with OVCAR-5 ovarian, in the assay with SF-539 CNS and with UACC-62 melanoma was > 100 µM in each case.
